From patent publication US20250228834A1, “PHARMACEUTICAL COMPOSITION FOR THE TREATMENT OF COLON AND LUNG CANCER” (HEPAREGENIX GMBH, priority 2022, published 2025) come the findings set out here.

What all share (type): cell-based
For assay [1], the system named is KRAS G12C mutant cancer cell line H358. Kind of assay: Colony formation matrix (Assay Method A), Example 4. The settings on record: compound (A) combined with RMC4550, 10 days, FIG. 4. How it is done: (§1) • KRAS mutant lung and colorectal cancer cells: • Lung: H358 (G12C) (ATCC No: CRL-5807) • H2122 (G12C) (ATCC No: CRL-5985) • Colon:DLD1 (G13D) (ATCC No: CCL-221) • HCT 116 (G13D) (ATCC No: CCL-247)
(§2) All cell lines were cultured in RPMI 1640 medium (Gibco) supplemented with 10% fetal bovine serum, 1% glutamine and penicillin-streptomycin (Gibco) at 37° C. and 5% CO2. Mycoplasma contamination was excluded via a PCR-based method.
(§3) Cell lines were cultured and seeded into 24-well plates. After 24 h incubation, drugs were added using the HP D300 Digital Dispenser. Medium and drugs were refreshed twice a week for 10-14 days. After this, cells were fixed with 4% formaldehyde in PBS and stained with 0.1% crystal violet in water. The quantification of the colony formation matrixes (crystal violet staining per well) was assessed using ImageJ software.
According to Assay Method A H358 cells were treated with compound (A), RMC4550 or their combination at the indicated concentrations (cf. FIG. 4). Drugs were refreshed twice a week. The cells were fixed and stained after 10 days.

In assay [2] the test system is Lung Cancer Cells. Briefly: IncuCyte Caspase 3/7 apoptosis assay (Assay Method C). To be noted: compound (A) in combination with Trametinib, RMC4550 or AMG510; first 72 hours; FIG. 5B. The procedure:
as §2
For IncuCyte proliferation assays and Caspase 3/7 assays, cells were seeded in 96-well plates. After 24 h incubation, drugs and the IncuCyte® Caspase-3/7 green apoptosis assays reagent (Essen Bioscience 4440) were added using the HP D300 Digital Dispenser and the plates were placed in the IncuCyte®. Culture media and drugs were refreshed twice a week for 10 days. Cells were imaged every 4 hours in the IncuCyte ZOOM (Essen Bioscience). Phase-contrast images were collected and analyzed to detect cell proliferation based on cell confluence. Apoptosis was measured based on green fluorescent staining of apoptotic cells using the IncuCyte® Caspase-3/7 green apoptosis assay reagent (Essen Bioscience 4440).
According to assay method C cells were treated with compound (A) as component a) and RMC4550, AMG510, or Trametinib as component b) or combinations of component a) and either one of component b) at the indicated concentrations. Additionally, during the first treatment, the IncuCyte® Caspase-3/7 green apoptosis assay reagent was added to measure apoptosis for the first 72 hours. […] Confluence (left) and Caspase 3/7 activity was measured by the IncuCyte®. […]

For assay [3], the system named is Lung Cancer Cells. Briefly: IncuCyte proliferation assay (Assay Method C), confluence. The procedure: as §2
Drugs were refreshed twice a week.

Assay [4] relates to KRAS mutant lung and colorectal cancer cells (H358, H2122, DLD1, HCT 116). Kind of assay: Colony formation matrix (Assay Method A). The procedure: as §1, §2, §3
According to Assay Method A cells (H358, H2122, DLD1, HCT 116) were treated with compound (A), Trametinib or their combination at the indicated concentrations (cf. FIG. 1). Drugs were refreshed twice a week. The cells were fixed and stained after 10 days.
According to Assay Method A cells (H358, DLD1, HCT 116) were treated with compound (A), SCH772984 or their combination at the indicated concentrations (cf. FIG. 2). Drugs were refreshed twice a week. The cells were fixed and stained after 10 days.

Assay [5] deals with KRASG12C mutant lung cancer cells (H358, H2122). Briefly: Colony formation matrix (Assay Method A), Example 3. The settings on record: 10 days, FIG. 3. The procedure:
as §1, §2, §3
According to Assay Method A cells (H358, H2122) were treated with compound (A), AMG510 or their combination at the indicated concentrations (cf. FIG. 3). Drugs were refreshed twice a week. The cells were fixed and stained after 10 days.

As for `CCCS(=O)(=O)Nc1c(F)ccc(C(=O)c2c[nH]c3ncc(-c4cnc(C5CC5)nc4)cc23)c1F` [compound (A), N-(3-(5-(2-cyclopropyl-pyrimidin-5-yl)-1H-pyrrolo[2,3-b]pyridine-3-carbonyl)-2,6-difluorophenyl)-propane-1-sulfonamide], the “synergy with SHP2 inhibition in colony formation matrix” value in assay [1] was “Synergizes”. Moreover, the “apoptosis (Caspase 3/7 activity)” value in the assay with Lung Cancer Cells [2] was “Induces Apoptosis”. In the assay with Lung Cancer Cells [3] (compound (A) in combination with Trametinib, RMC4550 or AMG510, FIG. 5A), the “cell proliferation (confluence)” value was “Abrogates Cell Proliferations”. In addition, in the assay on Lung Cancer Cells [3] (compound (A) with MEK, SHP2 and KRASG12C inhibitors, example 5, FIGS. 5A and 5B), the “synergistic effect of combination (confluence and Caspase 3/7 activity)” value is on record as “synergistic effect”. Moreover, the “synergy with MEK, ERK, KRAS and SHP2 inhibition, overall conclusion” value in assay [4] (compound (A) combined with MEK, ERK, KRAS or SHP2 inhibitor, all obtained results) is “strongly synergizes”. In assay [4] (compound (A) combined with SCH772984, H358, DLD1, HCT 116, 10 days, FIG. 2), the “synergy with ERK inhibition in colony formation matrix” value is reported as “Synergizes”. For the same compound, in assay [4] (single drug, KRAS mutant cancer cells (H358, H2122, DLD1, HCT 116), fixed and stained after 10 days, FIG. 1), the “toxicity in colony formation matrix, single drug” value is listed as “did not show sensitivity”. Besides, the “toxicity compared to the single agent effect of AMG510” value in assay [5] (addition of compound (A) to AMG510, KRAS G12C mutants H358, H2122) is recorded as “strongly increased the toxicity”. In assay [5] (compound (A) combined with AMG510, H358, H2122), the “synergy with AMG510 in colony formation matrix” value is listed as “strong synergy”.
